Source: US20250002507A1, “7,8-DIHYDRO-5H-1,6-NAPHTHYRIDINE DERIVATIVES AS POSITIVE ALLOSTERIC MODULATORS OF THE MUSCARINIC ACETYLCHOLINE RECEPTOR M4 FOR TREATING NEUROLOGICAL AND PSYCHIATRIC DISORDERS” (Vanderbilt University, priority 2021, published 2025)

Molecular target: T1, Human M4 (Homo sapiens, UniProt P08173)
T1 construct: expressed in transfected cells
T1 sequence (P08173 1-479): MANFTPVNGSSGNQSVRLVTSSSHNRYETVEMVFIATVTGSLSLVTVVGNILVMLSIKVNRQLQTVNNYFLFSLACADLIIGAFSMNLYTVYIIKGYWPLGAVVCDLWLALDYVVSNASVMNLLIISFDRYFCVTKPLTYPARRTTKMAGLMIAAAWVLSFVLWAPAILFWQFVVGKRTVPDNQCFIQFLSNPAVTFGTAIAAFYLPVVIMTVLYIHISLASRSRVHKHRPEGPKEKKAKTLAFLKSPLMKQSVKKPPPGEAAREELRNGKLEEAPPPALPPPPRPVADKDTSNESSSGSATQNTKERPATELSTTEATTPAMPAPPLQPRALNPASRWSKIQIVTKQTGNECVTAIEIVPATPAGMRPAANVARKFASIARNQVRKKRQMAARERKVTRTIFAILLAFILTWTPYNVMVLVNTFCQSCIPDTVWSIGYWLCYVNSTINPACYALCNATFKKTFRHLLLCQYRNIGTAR
Test: mAChR M4 cell-based functional assay (calcium flux, potentiation of EC20 acetylcholine response), hM4-Gqi5 CHO-K1 cells
Settings: Table 4; for Emax at 30 µM: CHO-K1, Human M4, % ACh maximum at 30 μM, read-out: Emax (% ACh maximum at 30 μM); for EC50: potentiation of EC20 acetylcholine response, calcium flux, CHO-K1 cells, read-out: Human M4 EC50
In short: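 Positive allosteric modulation was scored as a concentration-dependent rise in the response to an EC20 dose of acetylcholine, added 144 s after the compound. Human M4-Gqi5 CHO-K1 cells carried Fluo-4 dye, and compounds ran as 11-point, 3-fold dilution series. EC50 and Emax came from four-parameter logistic fits of the FDSS fluorescence-ratio traces.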

Row | Compound | Emax at 30 µM | EC50
1 | Cc1cc2nncn2nc1N1CCc2ncc(CC(F)(F)F)cc2C1 [Compound 334, 6-(7-methyl-[1,2,4]triazolo[4,3-b]pyridazin-6-yl)-3-(2,2,2-trifluoroethyl)-5,6,7,8-tetrahydro-1,6-naphthyridine] | 74% | 234 nM
2 | Cc1cc2nncn2nc1N1CCc2ncc(C(C)(O)C(F)(F)F)cc2C1 (stereo not shown) [Compound 335, 1,1,1-trifluoro-2-(6-(7-methyl-[1,2,4]triazolo[4,3-b]pyridazin-6-yl)-5,6,7,8-tetrahydro-1,6-naphthyridin-3-yl)propan-2-ol] | 77% | 1700 nM
3 | CCOC(=O)c1c(C)nc2cc(C)c(N3CCc4ncc(N5CCCn6nccc65)cc4C3)nn12 [Compound 336, ethyl 6-(3-(6,7-dihydropyrazolo[1,5-a]pyrimidin-4(5H)-yl)-7,8-dihydro-1,6-naphthyridin-6(5H)-yl)-2,7-dimethylimidazo[1,2-b]pyridazine-3-carboxylate] | 72% | 359 nM
4 | CCOC(=O)c1c(C)nc2cc(C)c(N3CCc4ncc(C(F)(F)F)cc4C3)nn12 [Compound 337, ethyl 2,7-dimethyl-6-(3-(trifluoromethyl)-7,8-dihydro-1,6-naphthyridin-6(5H)-yl)imidazo[1,2-b]pyridazine-3-carboxylate] | 61% | 1610 nM
5 | FC(F)(F)c1cnc2c(c1)CN(c1nn3c(C(F)(F)F)nnc3c3ccccc13)CC2 [Compound 338, 3-(trifluoromethyl)-6-(3-(trifluoromethyl)-7,8-dihydro-1,6-naphthyridin-6(5H)-yl)-[1,2,4]triazolo[3,4-a]phthalazine] | 84% | 5400 nM
6 | CCOC(=O)c1c(C)nc2c(C)c(C)c(N3CCc4ncc(C(F)(F)F)cc4C3)nn12 [Compound 339, Ethyl 2,7,8-trimethyl-6-(3-(trifluoromethyl)-7,8-dihydro-1,6-naphthyridin-6(5H)-yl)imidazo[1,2-b]pyridazine-3-carboxylate] | 67% | 1900 nM
7 | Cc1cc2cncn2nc1N1CCc2ncc(C(F)(F)F)cc2C1 [Compound 340, 6-(3-methylimidazo[1,5-b]pyridazin-2-yl)-3-(trifluoromethyl)-5,6,7,8-tetrahydro-1,6-naphthyridine] | 84% | 431 nM
8 | Cc1cc2cnc(C)n2nc1N1CCc2ncc(C(F)(F)F)cc2C1 [Compound 341, 6-(3,7-dimethylimidazo[1,5-b]pyridazin-2-yl)-3-(trifluoromethyl)-5,6,7,8-tetrahydro-1,6-naphthyridine] | 63% | 521 nM
9 | Cc1cc2cncn2nc1N1CCc2ncc(-c3cn(C)nc3C)cc2C1 [Compound 342, 3-(1,3-dimethyl-1H-pyrazol-4-yl)-6-(3-methylimidazo[1,5-b]pyridazin-2-yl)-5,6,7,8-tetrahydro-1,6-naphthyridine] | 81% | 492 nM
10 | c1cc2n(n1)CCCN2c1cnc2c(c1)CN(c1nn3cnnc3c3c1CCCC3)CC2 [Compound 344, 6-(3-(6,7-dihydropyrazolo[1,5-a]pyrimidin-4(5H)-yl)-7,8-dihydro-1,6-naphthyridin-6(5H)-yl)-7,8,9,10-tetrahydro-[1,2,4]triazolo[3,4-a]phthalazine] | 73% | 547 nM
11 | FC(F)(F)c1cnc2c(c1)CN(c1nn3cnnc3c3c1CCCC3)CC2 [Compound 345, 6-(3-(trifluoromethyl)-7,8-dihydro-1,6-naphthyridin-6(5H)-yl)-7,8,9,10-tetrahydro-[1,2,4]triazolo[3,4-a]phthalazine] | 63% | 1460 nM
12 | Cc1c(C2CC2)c(N2CCc3ncc(C(F)(F)F)cc3C2)nn2cnnc12 [Compound 346, 6-(7-Cyclopropyl-8-methyl-[1,2,4]triazolo[4,3-b]pyridazin-6-yl)-3-(trifluoromethyl)-5,6,7,8-tetrahydro-1,6-naphthyridine] | 70% | 2110 nM
13 | Cc1ccc(-c2cnc3c(c2)CN(c2nn4cnnc4c(C)c2C2CC2)CC3)cn1 [Compound 347, 6-(7-cyclopropyl-8-methyl-[1,2,4]triazolo[4,3-b]pyridazin-6-yl)-3-(6-methylpyridin-3-yl)-5,6,7,8-tetrahydro-1,6-naphthyridine] | 61% | 788 nM
14 | Cc1c(C2CC2)c(N2CCc3ncc(N4CCO[C@H](C)C4)cc3C2)nn2cnnc12 [Compound 348, (R)-4-(6-(7-cyclopropyl-8-methyl-[1,2,4]triazolo[4,3-b]pyridazin-6-yl)-5,6,7,8-tetrahydro-1,6-naphthyridin-3-yl)-2-methylmorpholine] | 66% | 1850 nM
15 | COCc1c(N2CCc3ncc(C(F)(F)F)cc3C2)nn2cnnc2c1C [Compound 349, 6-(7-(Methoxymethyl)-8-methyl-[1,2,4]triazolo[4,3-b]pyridazin-6-yl)-3-(trifluoromethyl)-5,6,7,8-tetrahydro-1,6-naphthyridine] | 106% | 93 nM
16 | COCc1c(C)c(N2CCc3ncc(C(F)(F)F)cc3C2)nn2cnnc12 [Compound 350, 6-(8-(Methoxymethyl)-7-methyl-[1,2,4]triazolo[4,3-b]pyridazin-6-yl)-3-(trifluoromethyl)-5,6,7,8-tetrahydro-1,6-naphthyridine] | 77% | 5110 nM
17 | Cc1c(N2CCc3ncc(C(F)(F)F)cc3C2)nn2cnnc2c1C(F)(F)F [Compound 351, 6-(7-Methyl-8-(trifluoromethyl)-[1,2,4]triazolo[4,3-b]pyridazin-6-yl)-3-(trifluoromethyl)-5,6,7,8-tetrahydro-1,6-naphthyridine] | 77% | 1400 nM
18 | [2H]C1([2H])Cc2ncc(Nc3cc(C)ncc3F)cc2C([2H])([2H])N1c1nn2cnnc2cc1C [Compound 352, N-(5-fluoro-2-methylpyridin-4-yl)-6-(7-methyl-[1,2,4]triazolo[4,3-b]pyridazin-6-yl)-5,6,7,8-tetrahydro-1,6-naphthyridin-5,5,7,7-d4-3-amine] | 98% | 67 nM
19 | [2H]C1([2H])Cc2ncc(Nc3cc(C)ncc3F)cc2C([2H])([2H])N1c1nn2cnnc2c(C)c1C [Compound 353, 6-(7,8-dimethyl-[1,2,4]triazolo[4,3-b]pyridazin-6-yl)-N-(5-fluoro-2-methylpyridin-4-yl)-5,6,7,8-tetrahydro-1,6-naphthyridin-5,5,7,7-d4-3-amine] | 99% | 22 nM
20 | [2H]C1([2H])Cc2ncc(Nc3cccnc3C)cc2C([2H])([2H])N1c1nn2cnnc2cc1C [Compound 354, 6-(7-methyl-[1,2,4]triazolo[4,3-b]pyridazin-6-yl)-N-(2-methylpyridin-3-yl)-5,6,7,8-tetrahydro-1,6-naphthyridin-5,5,7,7-d4-3-amine] | 87% | 355 nM
21 | [2H]C1([2H])Cc2ncc(Nc3ccncc3F)cc2C([2H])([2H])N1c1nn2cnnc2cc1C [Compound 355, N-(3-Fluoropyridin-4-yl)-6-(7-methyl-1,2,4[triazolo 4,3-b]pyridazin-6-yl)-5,6,7,8-tetrahydro-1,6-naphthyridin-5,5,7,7-d4-3-amine] | 94% | 14 nM
22 | [2H]C1([2H])Cc2ncc(Nc3ccncc3C)cc2C([2H])([2H])N1c1nn2cnnc2cc1C [Compound 356, 6-(7-methyl-[1,2,4]triazolo[4,3-b]pyridazin-6-yl)-N-(3-methylpyridin-4-yl)-5,6,7,8-tetrahydro-1,6-naphthyridin-5,5,7,7-d4-3-amine] | 77% | 686 nM
23 | [2H]C1([2H])Cc2ncc(Nc3ccncc3C)cc2C([2H])([2H])N1c1nn2cnnc2c(C)c1C [Compound 357, 6-(7,8-dimethyl-[1,2,4]triazolo[4,3-b]pyridazin-6-yl)-N-(3-methylpyridin-4-yl)-5,6,7,8-tetrahydro-1,6-naphthyridin-5,5,7,7-d4-3-amine] | 74% | 168 nM
24 | [2H]C1([2H])Cc2ncc(Nc3ccncc3F)cc2C([2H])([2H])N1c1nn2cnnc2c(C)c1C [Compound 358, 6-(7,8-dimethyl-[1,2,4]triazolo[4,3-b]pyridazin-6-yl)-N-(3-fluoropyridin-4-yl)-5,6,7,8-tetrahydro-1,6-naphthyridin-5,5,7,7-d4-3-amine] | 96% | 3 nM
25 | [2H]C1([2H])Cc2ncc(Nc3ccccc3F)cc2C([2H])([2H])N1c1nn2cnnc2cc1C [Compound 359, N-(2-fluorophenyl)-6-(7-methyl-[1,2,4]triazolo[4,3-b]pyridazin-6-yl)-5,6,7,8-tetrahydro-1,6-naphthyridin-5,5,7,7-d4-3-amine] | 116% | 7 nM
26 | Cc1cc2nncn2nc1N1CCc2ncc(Nc3ccncc3F)cc2C1 [Compound 360, N-(3-fluoropyridin-4-yl)-6-(7-methyl-[1,2,4]triazolo[4,3-b]pyridazin-6-yl)-5,6,7,8-tetrahydro-1,6-naphthyridin-3-amine] | 100% | 5 nM
